One may read the AUC(0-inf) as the area under the concentration-time curve extrapolated to infinity. A low value points to low exposure. What is called AUC(0-t) is exposure summed from dosing to a finite time, without extrapolation to infinity. The Cmax is the highest concentration seen after dosing. Usually MRT inf stands for a mean duration of stay, worked out from the concentration-time curve. By MRT last is commonly meant the average time that molecules of a dose stay in the body. What is called Tmax is the time at which the peak concentration occurs. As a reminder, the half-life is the time needed for the level to fall by half in the phase considered. Higher therefore signals slow loss.

The nature of data set [1]: Stability of analytes in rat plasma samples. In kind it is in vitro ADME. The following applies: three freeze–thaw (−80 °C–room temperature) cycles, low, medium and high QC samples.
The nature of data set [2]: Pharmacokinetic study in rats after oral administration of PbR extract. The class given is in vivo, rat. Particulars: for AUC(0-inf) / AUC(0-t) / Cmax / MRT inf / MRT last / Tmax / half-life: male, Wistar, plasma, po, 5 g/kg; for AUC(0-inf) / AUC(0-t) / Cmax / MRT inf / MRT last / Tmax / half-life / absorption characteristics: rat; for absorption characteristics: oral administration of PbR.

`COC(=O)C1=CO[C@@H](O[C@@H]2O[C@H](CO)[C@@H](O)[C@H](O)[C@H]2O)[C@H]2[C@@H]1[C@H](O)C[C@]2(C)OC(C)=O` [barlerin]: the “freeze–thaw stability in plasma samples” value in data set [1] is recorded as “No significant degradation”. In data set [2], the AUC(0-inf) worked out at 63.2 ± 17.4 ng·h/mL, the AUC(0-t) turned out to be 55.1 ± 15.5 ng·h/mL, the Cmax turned out to be 24.4 ± 8.4 ng/mL and the MRT inf was determined as 4.65 ± 1.43 h. In data set [2], the MRT last came out at 3.12 ± 0.64 h, the Tmax worked out at 0.33 ± 0.13 h, the half-life is 3.33 ± 1.21 h and the absorption characteristics result is given as “good absorption characteristics”.
For `C[C@@H]1O[C@@H](O[C@@H]2[C@@H](O)[C@H](OCCc3ccc(O)c(O)c3)O[C@H](COC(=O)/C=C/c3ccc(O)c(O)c3)[C@H]2O)[C@H](O)[C@H](O)[C@H]1O` [isoacteoside], in data set [2] (after oral administration of PbR at a dose of 0.5 g/100 g), the “detection in rat plasma” value is on record as “neither of these were detected”.
Turning to `COC(=O)C1=CO[C@@H](O[C@@H]2O[C@H](CO)[C@@H](O)[C@H](O)[C@H]2O)[C@H]2[C@@H]1[C@H](O)C[C@]2(C)O` [shanzhiside methyl ester], in data set [1], the “freeze–thaw stability in plasma samples” value was “No significant degradation”. For the same compound, in data set [2], the AUC(0-inf) is 159 ± 34.2 ng·h/mL, the AUC(0-t) stood at 141 ± 33.4 ng·h/mL, the concentration peaked (Cmax) at 41.6 ± 13.8 ng/mL and the MRT inf amounted to 5.28 ± 0.73 h. In data set [2], the MRT last worked out at 3.84 ± 0.61 h, the Tmax turned out to be 0.7 ± 0.14 h, the half-life is 3.59 ± 1.05 h and the absorption characteristics result was “good absorption characteristics”.
